Assays:
Zymoseptoria tritici = assay: Wheat leaf blight control efficacy test; type: in vivo; settings: 12.5 ppm, as Test Example 4
Botrytis cinerea = assay: Cucumber gray mold control efficacy test; type: in vivo; settings: as Test Example 2

Row | SMILES | control efficacy (Zymoseptoria tritici) [%] | control efficacy (Botrytis cinerea; 12.5 ppm) [%] | control efficacy (Botrytis cinerea; 100 ppm) [%]
1 | CON(C(=O)c1cn(C)nc1C(F)F)C(C)Cc1ccc(C#CCOCc2ccccc2)cc1Cl (stereo not drawn) [Compound I-18] | 100 | – | –
2 | CON(C(=O)c1cn(C)nc1C(F)F)C(C)Cc1c(Cl)cc(Cl)cc1Cl (stereo not drawn) [Control compound C] | – | 65 | 97
